Test results from ChEMBL document CHEMBL2429852, “Synthesis and evaluation of new chalcones, derived pyrazoline and cyclohexenone derivatives as potent antimicrobial, antitubercular and antileishmanial agents” (Med Chem Res, 2013).
Values after ≈ are worked out from the molar mass of the structure shown.

Tests used:
Staphylococcus aureus [1] = test: Antibacterial activity against Staphylococcus aureus MTCC 96 assessed as growth inhibition by broth microdilution method; type: functional
Candida albicans [2] = test: Potency index, ratio of griseofulvin MIC to compound MIC for Candida albicans MTCC 227; type: functional
Aspergillus clavatus = test: Antifungal activity against Aspergillus clavatus MTCC 1323 assessed as growth inhibition by broth microdilution method; type: functional
[3] = Selectivity index, ratio of CC50 for mouse J774A1 cells to IC50 for promastigote stage of Leishmania braziliensis H3; type: functional, J774.A1
[4] = Cytotoxicity against mouse J774A1 cells after 72 hrs by MTT assay; type: cell-based, J774.A1
Leishmania braziliensis = test: Antileishmanial activity against promastigote stage of Leishmania braziliensis H3 assessed as parasite growth inhibition after 72 hrs by Neubauer chamber counting method; type: functional, organism-based
[5] = tested on: Mycobacterium tuberculosis; test: Antitubercular activity against Mycobacterium tuberculosis H37Rv assessed as growth inhibition after 12 to 28 days by Lowenstein-Jensen agar method; type: functional; settings: for MIC: Mycobacterium tuberculosis, H37Rv
Pseudomonas aeruginosa [6] = test: Antibacterial activity against Pseudomonas aeruginosa MTCC 2488 assessed as growth inhibition by broth microdilution method; type: functional
Streptococcus pyogenes = test: Antibacterial activity against Streptococcus pyogenes MTCC 443 assessed as growth inhibition by broth microdilution method; type: functional
Escherichia coli = test: Antibacterial activity against Escherichia coli MTCC 442 assessed as growth inhibition by broth microdilution method; type: functional
Candida albicans [7] = test: Antifungal activity against Candida albicans MTCC 227 assessed as growth inhibition by broth microdilution method; type: functional
Aspergillus niger = test: Antifungal activity against Aspergillus niger MTCC 282 assessed as growth inhibition by broth microdilution method; type: functional
Staphylococcus aureus [8] = test: Potency index, ratio of ampicillin MIC to compound MIC for Staphylococcus aureus MTCC 96; type: functional
Pseudomonas aeruginosa [9] = test: Potency index, ratio of ampicillin MIC to compound MIC for Pseudomonas aeruginosa MTCC 2488; type: functional
[10] = Leishmania braziliensis, H3, 72 h, read-out: IC50

Row | Compound | MIC99 (Staphylococcus aureus [1]) [µg/mL] | Ratio (Candida albicans [2]) | MIC99 (Aspergillus clavatus) [µg/mL] | Ratio CC50/IC50 [3] | CC50 at 72 h [4] [µM] | IC50 (Leishmania braziliensis; [10]) [µM] | growth inhibition (GI) [5] [%] | MIC [5] [µg/mL] | MIC99 (Pseudomonas aeruginosa [6]) [µg/mL] | MIC99 (Streptococcus pyogenes) [µg/mL] | MIC99 (Escherichia coli) [µg/mL] | MIC99 (Candida albicans [7]) [µg/mL] | MIC99 (Aspergillus niger) [µg/mL] | IC50 (Leishmania braziliensis) | Ratio (Staphylococcus aureus [8]) | Ratio (Pseudomonas aeruginosa [9])
1 | COc1cc(/C=C/C(=O)c2cccc([N+](=O)[O-])c2)cc(OC)c1OC | 100 | 2 | > 1000 | 5.26 | 49 | 9.3 | 99 | 25 (≈ 72.8 µM) | 250 | 100 | 250 | 250 | > 1000 |  |  | 
2 | COc1ccc(C2CC(c3cccc([N+](=O)[O-])c3)=NN2C(C)=O)cc1 (stereo not given) | 250 |  | 1000 |  |  |  | 99 | 250 (≈ 737 µM) | 250 | 250 | 250 | 1000 | 1000 | Not Active |  | 
3 | COc1ccc(C2CC(c3cccc([N+](=O)[O-])c3)=NN2C(C)=O)cc1OC (stereo not given) | 125 | 2 | 500 |  |  |  | 99 | 500 (≈ 1350 µM) | 250 | 125 | 500 | 200 | 500 | Not Active |  | 
4 | CC(=O)N1N=C(c2cccc([N+](=O)[O-])c2)CC1c1ccc2c(c1)OCO2 (stereo not given) | 250 |  | 500 |  |  |  | 99 | 250 (≈ 708 µM) | 200 | 250 | 250 | 500 | 500 | Not Active |  | 
5 | COc1cc(OC)c(OC)cc1/C=C/C(=O)c1cccc([N+](=O)[O-])c1 | 500 |  | 1000 |  |  |  | 99 | 250 (≈ 728 µM) | 125 | 500 | 125 | 1000 | 1000 | Not Active |  | 
6 | O=[N+]([O-])c1cccc(C2=NNC(c3ccc4c(c3)OCO4)C2)c1 (stereo not given) | 100 | 2 | 1000 |  |  |  | 98 | 500 (≈ 1610 µM) | 200 | 125 | 100 | 250 | 1000 | Not Active |  | 
7 | O=[N+]([O-])c1cccc(C2=NNC(c3ccc4ccccc4c3)C2)c1 (stereo not given) | 50 | 5 | 250 |  |  |  | 99 | 62.5 (≈ 197 µM) | 25 | 125 | 250 | 100 | 100 | Not Active | 2 | 4
8 | CCOC(=O)C1C(=O)C=C(c2cccc([N+](=O)[O-])c2)CC1c1ccc(OC)cc1 (stereo not given) | 250 |  | > 1000 |  |  |  | 98 | 500 (≈ 1260 µM) | 200 | 500 | 100 | 500 | > 1000 | Not Active |  | 
9 | CCOC(=O)C1C(=O)C=C(c2cccc([N+](=O)[O-])c2)CC1c1ccc2c(c1)OCO2 (stereo not given) | 250 |  | 1000 |  |  |  | 99 | 250 (≈ 611 µM) | 200 | 200 | 125 | 500 | 1000 | Not Active |  | 
10 | CCOC(=O)C1C(=O)C=C(c2cccc([N+](=O)[O-])c2)CC1c1cc(OC)c(OC)c(OC)c1 (stereo not given) | 200 |  | > 1000 |  |  |  | 99 | 250 (≈ 549 µM) | 200 | 200 | 200 | 100 | > 1000 | Not Active |  | 
11 | COc1ccc(/C=C/C(=O)c2cccc([N+](=O)[O-])c2)cc1 | 500 |  | 200 |  |  |  | 98 | 1000 (≈ 3530 µM) | 200 | 500 | 200 | 1000 | 200 | Not Active |  | 
12 | COc1ccc(/C=C/C(=O)c2cccc([N+](=O)[O-])c2)c(OC)c1OC | 250 |  | > 1000 | 10.06 | 89.5 | 8.9 | 98 | 500 (≈ 1460 µM) | 200 | 250 | 200 | 1000 | > 1000 |  |  | 
